Results as given in patent publication US12595252B2, “Inhibitors of SARM1” (DISARM THERAPEUTICS, INC., priority 2019, dated 2026).

Target: T1, SARM1 (Homo sapiens, UniProt Q6SZW1)
T1 construct: made in house; host or cells: NRK1-HEK293T cells, transiently transfected; clarified lysate used unpurified
T1 sequence (Q6SZW1 with tags, fused parts or gaps): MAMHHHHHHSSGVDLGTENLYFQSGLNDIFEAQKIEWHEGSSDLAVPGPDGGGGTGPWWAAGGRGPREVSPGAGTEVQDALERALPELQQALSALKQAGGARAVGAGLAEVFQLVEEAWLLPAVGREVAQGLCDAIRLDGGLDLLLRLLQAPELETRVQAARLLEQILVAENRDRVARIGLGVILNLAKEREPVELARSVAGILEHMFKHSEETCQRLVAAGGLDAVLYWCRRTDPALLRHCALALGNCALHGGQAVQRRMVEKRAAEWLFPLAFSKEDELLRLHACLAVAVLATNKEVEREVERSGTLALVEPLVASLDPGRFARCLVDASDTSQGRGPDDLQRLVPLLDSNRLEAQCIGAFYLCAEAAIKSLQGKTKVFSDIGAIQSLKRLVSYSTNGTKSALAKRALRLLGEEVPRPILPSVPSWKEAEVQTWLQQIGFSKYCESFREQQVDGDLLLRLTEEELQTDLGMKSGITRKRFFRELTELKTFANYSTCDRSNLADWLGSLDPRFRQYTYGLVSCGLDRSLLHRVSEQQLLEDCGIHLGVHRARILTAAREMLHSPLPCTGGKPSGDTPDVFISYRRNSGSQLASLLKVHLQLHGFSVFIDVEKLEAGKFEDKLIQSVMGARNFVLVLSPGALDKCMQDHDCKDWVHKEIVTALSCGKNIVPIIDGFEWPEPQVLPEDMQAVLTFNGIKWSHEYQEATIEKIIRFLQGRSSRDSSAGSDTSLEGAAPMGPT
Assay: ARM-SAM-TIR SARM1 IC50 assay (NADase activity, NAD+ cleavage)
Type: biochemical
Conditions: not given
Method: This Example describes an assay of ARM-SAM-TIR NADase activity and use of this assay to measure the efficacy of compounds of Formula I to block SARM1 mediated NAD+ cleavage. This assay is optimized in such a way as to characterize the efficacy of the compounds in Formula I to inhibit SARM1 activity and to calculate an IC50 value for each compound. This assay makes use of full length SARM1, which encompasses the ARM, SAM and TIR domains.
NRK1-HEK293T cells were seeded onto 150 cm^2 plates at 20×10^6 cells per plate. The next day, the cells were transfected with 15 μg ARM-SAM-TIR expression plasmid, SEQ ID NO: 1.
The cultures were supplemented with 1 mM NR at time of transfection to minimize toxicity from ARM-SAM-TIR overexpression. Forty-eight hours after transfection, cells were harvested, pelleted by centrifugation at 1,000 rpm (Sorvall ST 16R centrifuge, Thermo Fisher), and washed once with cold PBS (0.01 M phosphate buffered saline NaCl 0.138 M; KCl 0.0027 M; pH 7.4). The cells were resuspended in PBS with protease inhibitors (cOmplete™ protease inhibitor cocktail, Roche product #11873580001) and cell lysates were prepared by sonication (Branson Sonifer 450, output=3, 20 episodes of stroke). The lysates were centrifuged (12,000×g for 10 min at 4° C.) to remove cell debris and the supernatants (containing ARM-SAM-TIR protein) were stored at −80° C. for later use in the in vitro ARM-SAM-TIR NADase assay (see below). Protein concentration was determined by the Bicinchoninic (BCA) method and used to normalize lysate concentrations.
The enzymatic assay was performed in a 384-well polypropylene plate in Dulbecco's PBS buffer in a final assay volume of 20 μL. ARM-SAM-TIR lysate with a final concentration of 5 μg/mL was pre-incubated with the respective compound at 1% DMSO final assay concentration over 2 h at room temperature. The reaction was initiated by addition of 5 μM final assay concentration of NAD+ as substrate. After a 2 hr room temperature incubation, the reaction was terminated with 40 μL of stop solution of 7.5% trichloroacetic acid in acetonitrile. The NAD+ and ADPR concentrations were analyzed by a RapidFire High Throughput Mass Spectrometry System (Agilent Technologies, Santa Clara, Calif.) using an API4000 triple quadrupole mass spectrometer (AB Sciex Framingham, Mass.).

Compound	IC50
CCOc1cncc(NCc2ccc(C)nc2)n1 [Example 9]	5 to 15 µM
COc1cncc(NCc2cncnc2)n1 [Example 22]	5 to 15 µM
COc1cncc(NCc2ccc(N3CCNCC3)nc2)n1 [Example 81]	5 to 15 µM

Same assay, conditions: ARM-SAM-TIR lysate 5 μg/mL from NRK1-HEK293T cells; 2 h pre-incubation; 5 μM NAD+; 2 hr room temperature; NAD+ and ADPR by RapidFire MS; read-out: SARM1 IC50

Compound	IC50
CCN(C)c1cncc(NCc2cccnc2)n1 [Example 30]	> 30 µM
COc1cncc(C(=O)Nc2ccccc2)n1 [Example 197]	> 30 µM
CCCc1cncc(NCc2cccnc2)n1 [Example 200]	> 30 µM
COc1cc(NCc2cccnc2)cc(=O)[nH]1 [Example 153]	> 30 µM
CNc1cncc(OCCCCNC(=O)OC(C)(C)C)n1 [Example 169]	> 30 µM
COc1cncc(NCC2CCCOC2)n1 (stereo not shown) [Example 210]	> 30 µM
COc1cncc(NCc2cn(C)nc2C)n1 [Example 206]	> 30 µM
Clc1cncc(OCc2cccnc2)n1 [Example 189]	> 30 µM
N#Cc1cncc(NCc2cccnc2)n1 [Example 154]	> 30 µM
CCOc1cncc(NCc2cnccn2)n1 [Example 183]	> 30 µM
c1ccc(COc2cncc(NCc3cccnc3)n2)cc1 [Example 198]	> 30 µM
CNc1cncc(OCCCCN)n1 [Example 173]	> 30 µM
CCOc1cncc(NC(=O)c2cccnc2)n1 [Example 191]	> 30 µM
NC(=O)c1cncc(NCc2cccnc2)n1 [Example 212]	> 30 µM
COc1cncc(NC(=O)c2ccccc2)c1 [Example 110]	> 30 µM
Cn1cc(CNc2cncc(OCC(F)(F)F)n2)cn1 [Example 117]	> 30 µM
COc1cncc(NC(=O)c2cccnc2)c1 [Example 111]	> 30 µM

Compound	IC50
CNc1cncc(OCCCN)n1 [Example 172]	> 30 µM
CCOc1cncc(OCc2cccnc2)n1 [Example 190]	> 30 µM
Brc1cncc(OCc2cccnc2)n1 [Example 188]	> 30 µM
COc1cncc(NCc2ccc(S(=O)(=O)N(C)C)cc2)n1 [Example 156]	15 to 30 µM
COc1cncc(NCc2ccc(C(F)(F)F)nc2)n1 [Example 91]	15 to 30 µM
CNc1nccc(OC)n1 [Example 162]	> 30 µM
CC(C)Oc1cncc(NCc2cccnc2)n1 [Example 13]	> 30 µM
COc1cncc(NS(=O)(=O)c2cccnc2)n1 [Example 17]	> 30 µM
COc1cncc(NCc2nccn2C)n1 [Example 51]	> 30 µM
COc1cncc(N)c1 [Example 160]	15 to 30 µM
CN(C)Cc1ccc(N2CCN(c3cncc(OCC4CCCC4)n3)CC2)nc1 [Example 2]	> 30 µM
COc1cncc(NCc2cccnc2O)n1 [Example 145]	> 30 µM
COc1cncc(NS(=O)(=O)c2ccccc2)c1 [Example 209]	> 30 µM
Cn1cc(CNc2cncc(O)n2)cn1 [Example 214]	> 30 µM
COc1cnc(NCc2cccnc2)cn1 [Example 203]	> 30 µM
COc1cnnc(NCc2cn[nH]c2)c1 [Example 135]	15 to 30 µM
Clc1cncc(NCc2cccnc2)n1 [Example 187]	> 30 µM

The next lines start with the values.

IC50	Compound
5 to 15 µM	CNC(=O)c1cncc(NCc2cccnc2)n1 [Example 139]
5 to 15 µM	COc1cncc(NCc2ccoc2)n1 [Example 58]
< 5 µM	COc1cncc(NCc2cnn(C3CCN(C)CC3)c2)n1 [Example 119]
15 to 30 µM	COc1cncc(NCc2cn(C)cn2)n1 [Example 55]
15 to 30 µM	COc1cncc(N)n1 [Example 159]
5 to 15 µM	CNc1cncc(OC)c1 [Example 171]
5 to 15 µM	COc1cncc(NCc2cccc(F)c2)n1 [Example 39]
15 to 30 µM	CNc1cncc(NCCCCO)n1 [Example 166]
5 to 15 µM	COc1cncc(NCc2cnc(N3CCNCC3C)nc2)n1 (stereo not shown) [Example 112]
5 to 15 µM	COc1cncc(NCc2cnco2)n1 [Example 68]
5 to 15 µM	COc1cncc(NCc2ccc(C#N)cc2)n1 [Example 129]
5 to 15 µM	CCNC(=O)n1cc(CNc2cncc(OC)n2)cn1 [Example 149]
15 to 30 µM	CCc1cncc(NCc2cccnc2)n1 [Example 138]
15 to 30 µM	COc1cncc(NCc2cnn3ccccc23)n1 [Example 90]
5 to 15 µM	COc1cncc(NCc2ccc(N3CCNC(=O)C3)nc2)n1 [Example 114]
15 to 30 µM	COc1cncc(NCc2cccc(S(C)(=O)=O)c2)n1 [Example 127]
5 to 15 µM	COc1cncc(NCc2ccc(NS(C)(=O)=O)nc2)n1 [Example 133]
15 to 30 µM	COc1cncc(NCC2CCOC2)n1 (stereo not shown) [Example 50]
5 to 15 µM	CCCCN1CCN(c2ccc(CNc3cncc(OC)n3)cn2)CC1 [Example 148]
5 to 15 µM	COc1nc(NCc2cccnc2)cnc1C [Example 35]
5 to 15 µM	COc1cncc(NCc2cccc(S(N)(=O)=O)c2)n1 [Example 211]
15 to 30 µM	COc1cncc(NCc2cccn2C)n1 [Example 59]
5 to 15 µM	COc1cncc(NCc2ccc(C(N)=O)cc2)n1 [Example 64]
15 to 30 µM	CCOc1cncc(NCc2ccccc2)n1 [Example 10]

IC50	Compound
5 to 15 µM	COc1cncc(NCc2ccn(C)n2)n1 [Example 54]
5 to 15 µM	COc1cncc(NCc2cnc(C)s2)n1 [Example 70]
5 to 15 µM	Oc1cncc(NCc2cccnc2)c1 [Example 14]
5 to 15 µM	COc1cncc(NCc2cccc(C#N)c2)n1 [Example 128]
5 to 15 µM	CCOc1cncc(NCc2ccc(N3CCN(CC)CC3)cc2)n1 [Example 7]
5 to 15 µM	COc1cncc(NCc2cccc(N3CCN(C(=O)OC(C)(C)C)CC3)c2)n1 [Example 123]
5 to 15 µM	COCCn1cc(CNc2cncc(OC)n2)cn1 [Example 93]
5 to 15 µM	CCOc1cncc(NCc2ccc(N3CCN(CC)CC3)nc2)n1 [Example 3]
5 to 15 µM	COc1cncc(NCc2ccc(NCCN(C)C)nc2)n1 [Example 113]
5 to 15 µM	COc1cncc(NCc2cnc3ccccc3c2)n1 [Example 26]
5 to 15 µM	COc1cc(NC(=O)c2cccnc2)cnn1 [Example 136]
5 to 15 µM	COc1cncc(NCc2cnn(CCN(C)C)c2)n1 [Example 104]
5 to 15 µM	Cn1cc(CNc2cncc(NCCCCO)n2)cn1 [Example 151]
5 to 15 µM	COc1ccc(CNc2cncc(OC)n2)cc1 [Example 38]
< 5 µM	CNc1cncc(OCCCCO)n1 [Example 174]
< 5 µM	COc1cncc(NCc2ccc(S(N)(=O)=O)cc2)n1 [Example 63]
< 5 µM	COc1cncc(NCc2ccc(NC(C)=O)cc2)n1 [Example 47]
5 to 15 µM	COc1cncc(NCc2cccnc2)n1 [Example 12]
5 to 15 µM	c1cncc(CNc2cncc(-n3cccn3)n2)c1 [Example 28]
5 to 15 µM	COc1cncc(NCc2cnc(C)o2)n1 [Example 121]
5 to 15 µM	COc1cncc(NCc2cnn(C(C)C)c2)n1 [Example 92]
5 to 15 µM	COc1cncc(NCc2ccc(C3CCN(C)CC3)nc2)n1 [Example 125]
< 5 µM	COc1cncc(NCc2cnn(C3CCNCC3)c2)n1 [Example 105]
5 to 15 µM	COc1cncc(NCc2ccc(N3CCN(C(=O)OC(C)(C)C)CC3)nc2)n1 [Example 132]
